In series [1] the test system is Chinese hamster ovarian (CHO) cell line. Nature of the series: Mammalian cell cytotoxicity, MTT assay. The settings on record: CHO cells, MTT, 48 h; reference drug. As for the experimental part: To determine the biocompatibility of W2-FL10 as a potential therapeutic agent, the in vitro cytotoxicity of W2-FL10 against the CHO cell line ([50]) was determined over 48 h by the Drug Discovery and Development Centre at the University of Cape Town, as previously described by Mosmann ([51]). Briefly, W2-FL10 was prepared to a 10 mM stock solution in 100% DMSO and dilutions were prepared in growth media. The CHO cell line density of 10^5 cells/well in 96-well plates and allowed to attach for 24 h. Thereafter, the compound was added to the 96-well plates at various concentrations from 50 µM down to 16 nM and incubated for a further 48 h. At 44 h, MTT was added to the wells, and the plates were read 4 h later at 540 nm on a spectrophotometer. […] Finally, cell inhibition was plotted against concentration and the 50% lethal concentration (LC50) parameter and a minimum lethal concentration (MLC90) were obtained as described for the dose responses against bacterial targets above (equation 1).

In series [2] the test system is methicillin-resistant S. aureus (MRSA). Particulars: cited from earlier work. An excerpt: The antimicrobial activity of the serrawettin W2-FI10 analog (i.e., C10H18O2-Leu-Ser-Thr-Phe-Ile), has been extensively investigated.
Another series deals with Escherichia coli. Particulars: cited from earlier work. An excerpt: (§1) Key parameters contributing to the antimicrobial activity of lipopeptides include hydrophobicity and net charge ([5], [24]). Serrawettin W2-FL10 is a relatively small and moderately amphipathic lipopeptide with a neutral charge.
For another series, the system named is L. monocytogenes B73. The settings on record: cited from earlier work.
Source text: as §1

`CC[C@H]1CN2CCc3cc(OC)c(OC)cc3[C@@H]2C[C@@H]1C[C@H]1NCCc2cc(OC)c(OC)cc21` [emetine, reference compound]: in series [1], the LC50 entry is listed as “approximately 40 nM”.

Regarding “C10H18O2-Leu-Ser-Thr-Phe-Ile (lariat or depsi) [W2-FI10, serrawettin W2-FI10, serrawettin W2 analog, C10H18O2-Leu-Ser-Thr-Phe-Ile]”, the “concentration with inhibitory activity” value in series [2] is recorded as 4 µg/mL. Consider PGla, for which the ICF in the series with Escherichia coli was 2.5. Take gramicidin S: the ICF in the series on Escherichia coli is listed as 5.7.

As a reminder, the MIC is the lowest concentration found to suppress growth. tyrocidine C: in the series on L. monocytogenes B73, the ICF was 1.9 and the MIC is listed as 13 µM.

The record behind these values is PMC11218446, “Antibacterial efficacy and membrane mechanism of action of the Serratia-derived non-ionic lipopeptide, serrawettin W2-FL10” (Microbiology Spectrum, 2024).
